[s4U] = 4-thiouridine base; m = 2'-O-methyl; r = 2'-OH (RNA)
B1: tRNA-Val(UAC): tRNA purified from Escherichia coli MRE600 total tRNA, SEQ ID NO: 237 (nucleic acid, listed as Escherichia coli)
chain: GGGUGAUUAGCUCAGCDGGGAGAGCACCUCCCUUACAAGGAGGGGGUCGGCGGUNCGAUCCCGUCAUCACCCACCA
modifications: expressed or natural sequence
B2: tRNA-Leu(CAG): tRNA purified from Escherichia coli MRE600 total tRNA, SEQ ID NO: 218 (nucleic acid, listed as Escherichia coli)
chain: GCGAAGGUGGCGGAANNGGNAGACGCGCUAGCUUCAGGNGNUAGUGUCCUUACGGACGUGGGGGUNCAAGUCCCCCCCCUCGCACCA
modifications: expressed or natural sequence

Legend:
[1] = test system: HCT-8/5-FU (5-FU-resistant strain of HCT-8); test: MTT cytotoxicity assay on HCT-8/5-FU cells; format: cell-based, human; settings: for IC50: MTT, 48 h treatment; for effect on growth and proliferation (FIGS. 7A, 7B): 6.25-100 nM
Procedure: (§1) HCT-8, fluorouracil-resistant HCT-8, fluorouracil-resistant LoVo cell lines were cultured in RPMI Medium 1640 medium containing 10% FBS and 1% penicillin/streptomycin. LoVo cell line was cultured in F-12K medium containing 10% FBS and 1% penicillin/streptomycin. All cell lines above were cultured at humidified atmosphere containing 5% CO2 at 37° C.
(§2) In the cytotoxicity assay, exponentially growing cells of each cancer cell line were plated in 96-well microplate at a density of 5000 cells per well in 100 μL of culture medium and allowed to adhere for 24 h before treatment. Serial concentrations of RNA molecules obtained in Example 1 to 4 in a mixture containing a gene delivery carrier, i.e. Lipofectamine™ RNAiMAX Transfection Reagent (Thermo Fisher Scientific, U.S.A.) were then added to the cells. After treated for 48 h, MTT solution (50 μL per well, 1 mg/mL solution) was added to each well and incubated for 4 h at 37° C. Subsequently, 200 μL dimethyl sulfoxide (DMSO) were added and the optical densities of the resulting solutions were calorimetrically determined at 570 nm using a SpectraMax 190 microplate reader (Molecular Devices, Sunnyvale, CA, U.S.A). Dose-response curves were obtained, and the IC50 values were calculated by GraphPad Prism 5 (GraphPad, La Jolla, CA, USA). Each experiment was carried out for three times. IC50 results were expressed as means±standard deviation.

[2] = test system: LoVo/5-FU (5-FU-resistant strain of LoVo); test: MTT cytotoxicity assay on LoVo/5-FU cells; format: cell-based; settings: for IC50: MTT, 48 h treatment; for effect on growth and proliferation (FIGS. 7A, 7B): 6.25-100 nM
Procedure: as §1, §2

[3] = test system: HCT-8 human ileocecal colorectal adenocarcinoma cell line; test: MTT cytotoxicity assay on HCT-8 cells; format: cell-based; settings: for IC50 / effect on growth and proliferation (FIGS. 7A, 7B): HCT-8; for IC50: MTT, 48 h treatment; for cell viability of HCT-8 cells (FIG. 6A): 50 nM, 48 h, vs control and RNAiMAX group; for effect on growth and proliferation (FIGS. 7A, 7B): 6.25-100 nM
Procedure: as §1, §2

[4] = test system: LoVo colorectal adenocarcinoma cell line; test: MTT cytotoxicity assay on LoVo cells; format: cell-based; settings: for IC50: MTT, 48 h treatment; for effect on growth and proliferation (FIGS. 7A, 7B): 6.25-100 nM
Procedure: as §1, §2

LoVo cells [5] = test: Clonogenic assay on LoVo cells; format: cell-based; settings: 25 nM; for colony number, inhibition of proliferation (FIG. 8B): vs control group
Procedure: as §1
(§3) In the clonogenic assay, HCT-8 or LoVo cells were plated in 6-well microplate at a density of 1000 cells per well in 2 mL of culture medium and allowed to adhere for 24 h before treatment. Single concentration of RNA molecules obtained in Example 1 to 4 in a mixture containing a gene delivery carrier, i.e. Lipofectamine™ RNAiMAX Transfection Reagent (Thermo Fisher Scientific, U.S.A.) were then added to the cells. After treated for 48 h, discarded the drug solutions and replaced with 2 mL of fresh culture medium. After culture 14 days, discarded the culture medium and the cells were fixated with 4% paraformaldehyde fix solution for 20 min, followed by stained with crystal violet for 10 min and then washed by deionized water. The 6-well microplate was photographed and the number of colonies with more than 50 individual cells were counted using ImageJ software (U.S.A.). Each experiment was carried out for three times. Results were expressed as means±standard deviation.

HCT-8 cells [6] = test: Clonogenic assay on HCT-8 cells; format: cell-based, human; settings: 50 nM; for colony number, inhibition of proliferation (FIG. 8A): vs control group
Procedure: as §1, §3

HCT-8 cells [7] = test: Wound-healing assay on HCT-8 cells; format: cell-based, human; settings: 50 nM; for wound area, inhibition of migration (FIG. 9A): vs control group
Procedure: as §1
as §3, with “wound-healing” for “clonogenic”, “500,000” for “1000”, “[…]” for “Single concentration”, “[…] A 1 mL bacteria-free pipette tip was used to make a cross-scratch at the bottom of 6-well microplate. The cells in the scratch were washed away using phosphor buffer solution and the 6-well microplate was photographed under a microscope. Single concentration of RNA molecules obtained in Example 1 to 4 in a mixture containing a gene delivery carrier, i.e. Lipofectamine™ RNAiMAX Transfection Reagent (Thermo Fisher Scientific, U.S.A.) were then added to the cells. The cells were then photographed under microscope at 24 and 48 h. ImageJ software was applied to quantify the area of wound created. Each experiment was carried out for three times. Results were expressed as means±standard deviation.” for “deviation.”

LoVo cells [8] = test: Wound-healing assay on LoVo cells; format: cell-based; settings: 25 nM; for wound area, inhibition of migration (FIG. 9B): vs control group
Procedure: as §1
as §3, with “wound-healing” for “clonogenic”, “500,000” for “1000”, “[…]” for “Single concentration”, “[…] A 1 mL bacteria-free pipette tip was used to make a cross-scratch at the bottom of 6-well microplate. The cells in the scratch were washed away using phosphor buffer solution and the 6-well microplate was photographed under a microscope. Single concentration of RNA molecules obtained in Example 1 to 4 in a mixture containing a gene delivery carrier, i.e. Lipofectamine™ RNAiMAX Transfection Reagent (Thermo Fisher Scientific, U.S.A.) were then added to the cells. The cells were then photographed under microscope at 24 and 48 h. ImageJ software was applied to quantify the area of wound created. Each experiment was carried out for three times. Results were expressed as means±standard deviation.” for “deviation.”

[9] = among EC83 mimic and modified mimics

| Molecule | cell viability of HCT-8 cells (FIG. 6A) [3] | effect on growth and proliferation (FIGS. 7A, 7B) [1] | IC50 [1] [nM] | colony number, inhibition of proliferation (FIG. 8B) (LoVo cells [5]) | effect on growth and proliferation (FIGS. 7A, 7B) [2] | IC50 [2] [nM] | effect on growth and proliferation (FIGS. 7A, 7B) [3] | IC50 [3] [nM] | colony number, inhibition of proliferation (FIG. 8A) (HCT-8 cells [6]) | wound area, inhibition of migration (FIG. 9A) (HCT-8 cells [7]) | wound area, inhibition of migration (FIG. 9B) (LoVo cells [8]) | effect on growth and proliferation (FIGS. 7A, 7B) [4] | IC50 [4] [nM] | further results |
| --- | --- | --- | --- | --- | --- | --- | --- | --- | --- | --- | --- | --- | --- | --- |
| O=c1[nH]cc(F)c(=O)[nH]1 [5-FU, fluorouracil, reference compound] |  |  |  |  |  |  |  |  |  |  |  |  |  | IC50 ([1]; Homo sapiens): 171000 nM; IC50 ([2]; Homo sapiens): 133000 nM; IC50 ([3]; Homo sapiens): 41400 nM; IC50 ([4]; Homo sapiens): 63900 nM |
| EC41 mimic: 22 bp dsRNA; antisense SEQ ID NO: 47 GGGUGAUUAGCUCAGCUGGGAG, sense SEQ ID NO: 141 CUCCCAGCUGAGCUAAUCACCC; 5′-t of tRNA-Val(UAC) (listed as RNA, chemistry not given here) [22 bp dsRNA; 5′-t of tRNA-Val(UAC)] | effective to colorectal cancer cells |  |  |  |  |  |  |  |  |  |  |  |  |  |
| EC42 mimic: 22 bp dsRNA; antisense SEQ ID NO: 48 UCGAUCCCGUCAUCACCCACCA, sense SEQ ID NO: 142 UGGUGGGUGAUGACGGGAUCGA; 3′-t of tRNA-Val(UAC) (listed as RNA, chemistry not given here) [22 bp dsRNA; 3′-t of tRNA-Val(UAC)] | effective to colorectal cancer cells |  |  |  |  |  |  |  |  |  |  |  |  |  |
| EC83 mimic: 22 bp dsRNA; antisense SEQ ID NO: 89 GCCGAAGUGGCGAAAUCGGUAG, sense SEQ ID NO: 183 CUACCGAUUUCGCCACUUCGGC; 5′-t of tRNA-Leu(CAA) (RNA, backbone not given here; tRNA-derived fragment mimic duplex) [22 bp dsRNA; 5′-t of tRNA-Leu(CAA)] |  | dose-dependent effect on inhibiting the growth and proliferation | 63.4 | significantly inhibit the proliferation | dose-dependent effect on inhibiting the growth and proliferation | 29.5 | dose-dependent effect on inhibiting the growth and proliferation | 70.6 | significantly inhibit the proliferation | significantly inhibit the migration | significantly inhibit the migration | dose-dependent effect on inhibiting the growth and proliferation | 28.8 | cytotoxicity ranking on HCT-8 cells (FIG. 6C) ([3]; among synthetic RNA molecules of Example 4): strongest cytotoxicity |
| EC83-M1 mimic: modified EC83 dsRNA; antisense SEQ ID NO: 1 GCCGAAG[s^4U]GGCGAAAUCGGUAG, sense SEQ ID NO: 4 CUACCGAUUUCGCCACUUCGGC (antisense GCCGAAGUGGCGAAAUCGGUAG; antisense: RNA, [s4U] at 8, backbone not given here; sense: RNA, backbone not given here; tRNA-derived fragment mimic duplex) |  | dose-dependent effect on inhibiting the growth and proliferation | 69.6 | significantly inhibit the proliferation | dose-dependent effect on inhibiting the growth and proliferation | 54.2 | dose-dependent effect on inhibiting the growth and proliferation | 77.9 | significantly inhibit the proliferation | significantly inhibit the migration | significantly inhibit the migration | dose-dependent effect on inhibiting the growth and proliferation | 43.6 |  |
| EC83-M2 mimic: modified EC83 dsRNA; antisense SEQ ID NO: 2 GCCGAAGUGGCGAAAUC[Gm]GUAG, sense SEQ ID NO: 5 CUACCGAUUUCGCCACUUCGGC (antisense GCCGAAGUGGCGAAAUCGGUAG; antisense: sugars from the 5' end r17 m1 r4, backbone not given here; sense: RNA, backbone not given here; tRNA-derived fragment mimic duplex) |  | dose-dependent effect on inhibiting the growth and proliferation | 48.8 | significantly inhibit the proliferation | dose-dependent effect on inhibiting the growth and proliferation | 18.3 | dose-dependent effect on inhibiting the growth and proliferation | 58.9 | significantly inhibit the proliferation | significantly inhibit the migration | significantly inhibit the migration | dose-dependent effect on inhibiting the growth and proliferation | 19.9 | anti-proliferation activity ranking (FIG. 8B) (LoVo cells [5]; [9]): strongest anti-proliferation activity; anti-proliferation activity ranking (FIG. 8A) (HCT-8 cells [6]; [9]): strongest anti-proliferation activity; wound healing inhibition ranking (FIG. 9A) (HCT-8 cells [7]; [9]): strongest inhibition effect on the wound healing; wound healing inhibition ranking (FIG. 9B) (LoVo cells [8]; [9]): strongest inhibition effect on the wound healing |
| EC85 mimic: 22 bp dsRNA; antisense SEQ ID NO: 91 GCGAAGGUGGCGGAAUUGGUAG, sense SEQ ID NO: 185 CUACCAAUUCCGCCACCUUCGC; 5′-t of tRNA-Leu(CAG) (listed as RNA, chemistry not given here) [22 bp dsRNA; 5′-t of tRNA-Leu(CAG)] | effective to colorectal cancer cells |  |  |  |  |  |  |  |  |  |  |  |  |  |
| EC86 mimic: 22 bp dsRNA; antisense SEQ ID NO: 92 UCAAGUCCCCCCCCUCGCACCA, sense SEQ ID NO: 186 UGGUGCGAGGGGGGGGACUUGA; 3′-t of tRNA-Leu(CAG) (listed as RNA, chemistry not given here) [22 bp dsRNA; 3′-t of tRNA-Leu(CAG)] | effective to colorectal cancer cells |  |  |  |  |  |  |  |  |  |  |  |  |  |
| B1 | effective to colorectal cancer cells |  |  |  |  |  |  |  |  |  |  |  |  |  |
| B2 | effective to colorectal cancer cells |  |  |  |  |  |  |  |  |  |  |  |  |  |
